Reference: paper PMC10325911 (2023)

Key:
[1] = tested on: c-MYC Pu22 (DNA, G4) TGAGGGTGGGTAGGGTGGGTAA; assay: CD melting; details: K+ 5 mM; Tris 10 mM pH 7.2, DBI 10 μM, oligonucleotide 2 μM, DMSO 2%
[2] = tested on: sc ds-DNA (DNA, duplex) CAATCGGATCGAATTCGATCCGATTG; assay: CD melting; details: K+ 5 mM; Tris 10 mM pH 7.2, DBI 10 μM, oligonucleotide 2 μM, DMSO 2%
[3] = tested on: 4G3U3 (RNA, G4) GGGUUUGGGUUUGGGUUUGGG; assay: CD melting; details: K+ 5 mM; Tris 10 mM pH 7.2, DBI 10 μM, oligonucleotide 2 μM, DMSO 2%
[4] = tested on: c-MYC Pu24T (DNA, G4) TGAGGGTGGTGAGGGTGGGGAAGG; assay: CD melting; details: K+ 5 mM; Tris 10 mM pH 7.2, DBI 10 μM, oligonucleotide 2 μM, DMSO 2%
[5] = tested on: Tel-22 (DNA, G4) AGGGTTAGGGTTAGGGTTAGGG; assay: CD melting; details: K+ 5 mM; Tris 10 mM pH 7.2, DBI 10 μM, oligonucleotide 2 μM, DMSO 2%
[6] = tested on: Bom17 (DNA, G4) GGTTAGGTTAGGTTAGG; assay: CD melting; details: K+ 5 mM; Tris 10 mM pH 7.2, DBI 10 μM, oligonucleotide 2 μM, DMSO 2%
[7] = tested on: ds-DNA HIF-1α (DNA, duplex) GCGCGGGGAGGGGAGAGGGGGCGGGAGCGCG/CGCGCTCCCGCCCCCTCTCCCCTCCCCGCGC; assay: CD melting; details: K+ 5 mM; Tris 10 mM pH 7.2, DBI 10 μM, oligonucleotide 2 μM, DMSO 2%
[8] = tested on: HIF-1α (DNA, G4) GCGCGGGGAGGGGAGAGGGGGCGGGAGCGCG; assay: fluorescence polarization titration; details: K+ 100 mM; Tris 50 mM pH 7.2, DBI 1 μM, DMSO 1%, DNA 0-10 μM
[9] = tested on: c-MYC Pu22 (DNA, G4) TGAGGGTGGGTAGGGTGGGTAA; assay: fluorescence polarization titration; details: K+ 100 mM; Tris 50 mM pH 7.2, DBI 1 μM, DMSO 1%, DNA 0-10 μM
[10] = tested on: mut HIF-1α (DNA, single strand) GCGCGGCGAGCGGAGAGGGCGCGCGAGCGCG; assay: fluorescence polarization titration; details: K+ 100 mM; Tris 50 mM pH 7.2, DBI 1 μM, DMSO 1%, DNA up to 10 μM
[11] = tested on: C-rich HIF-1α (DNA, single strand) CGCGCTCCCGCCCCCTCTCCCCTCCCCGCGC; assay: fluorescence polarization titration; details: K+ 100 mM; Tris 50 mM pH 7.2, DBI 1 μM, DMSO 1%, DNA up to 10 μM
[12] = tested on: sc ds-DNA (DNA, duplex) CAATCGGATCGAATTCGATCCGATTG; assay: fluorescence polarization titration; details: K+ 100 mM; Tris 50 mM pH 7.2, DBI 1 μM, DMSO 1%, DNA up to 10 μM
[13] = tested on: 4G3U3 (RNA, G4) GGGUUUGGGUUUGGGUUUGGG; assay: fluorescence polarization titration; details: no or very weak binding response, group statement for all four RNAs
[14] = tested on: TERRA (RNA, G4) UUAGGGUUAGGGUUAGGGUUAGGG; assay: fluorescence polarization titration; details: no or very weak binding response, group statement for all four RNAs
[15] = tested on: FMR1 (RNA, G4) GGAGGGGGAGGAAGAGGACAAGGAGGAAGAGG; assay: fluorescence polarization titration; details: no or very weak binding response, group statement for all four RNAs
[16] = tested on: sc ds-RNA (RNA, duplex) CAAUCGGAUCGAAUUCGAUCCGAUUG; assay: fluorescence polarization titration; details: no or very weak binding response, group statement for all four RNAs

Which ΔTm [1] does the source give for `CCC(CC)n1c(=O)c2ccc3sc4ccc5ccccc5c4c4ccc(c1=O)c2c34` here?
Its ΔTm is 7.3 °C.

What about the ΔTm [2] of the same compound?
The ΔTm was -1.5 °C.

And the ΔTm [3]?
The ΔTm was 0.6 °C.

What about the ΔTm [4] of the same compound?
Its ΔTm is 3.3 °C.

And the ΔTm [5]?
Its ΔTm is -1.3 °C.

What about the ΔTm [6] of the same compound?
The ΔTm was -0.1 °C.

What about the ΔTm [7] of the same compound?
The ΔTm was 2 °C.

What about the Ka [8] of the same compound?
Its Ka is 4.6 × 10^5 ± 0.5 M^−1.

And the Ka [9]?
The Ka was 4.5 × 10^5 ± 1.1 M^−1.

What about the binding [10] of the same compound?
Its binding is “no”.

What about the binding [11] of the same compound?
Its binding is “no”.

What about the binding [12] of the same compound?
Its binding is “no”.

And the binding [13]?
The binding was “weak”.

And the binding [14]?
The binding was “weak”.

What about the binding [15] of the same compound?
Its binding is “weak”.

What about the binding [16] of the same compound?
The binding was “weak”.
